In patent US8758816B2, “Compositions comprising azelastine and methods of use thereof” (priority 2004, dated 2014):

Test system: patients with seasonal allergic rhinitis (SAR)
Assay: MP 428 two-week randomized double-blind study: Total Nasal Symptom Score (TNSS), change from baseline
Assay type: in vivo, human
Set-up: key to Change from Baseline in AM TNSS, Mean / Change from Baseline in AM TNSS, LS Mean / Change from Baseline in AM TNSS, Median: TNSS sum of 4 symptoms each 0-3 (0=none, 3=severe); change from baseline
Protocol: A two-week, randomized, double-blind study, which evaluated the effects of the co-administration of ASTELIN® (azelastine hydrochloride (HCl)) and FLONASE® (fluticasone propionate) compared to either product alone in patients with seasonal allergic rhinitis (SAR) was conducted during the 2006 Texas mountain cedar season. After a 5-day placebo lead-in period, 151 patients with moderate-to-severe allergic rhinitis symptoms were randomized to either: (1) (49 total patients) ASTELIN® (azelastine hydrochloride (HCl)) plus placebo saline nasal spray 2 sprays per nostril, 15 minutes apart, twice daily (AM & PM); (2) (50 total patients) FLONASE® (fluticasone propionate) plus placebo saline nasal spray, 2 sprays per nostril, 15 minutes apart, once daily (AM) and two sessions of placebo saline nasal spray, 2 sprays per nostril, 15 minutes apart (PM); or (3) (52 total patients) the co-administration of ASTELIN® (azelastine hydrochloride (HCl)) 2 sprays per nostril plus FLONASE® (fluticasone propionate) 2 sprays per nostril (AM), 15 minutes apart, and ASTELIN® (azelastine hydrochloride (HCl)) 2 sprays per nostril plus placebo saline nasal spray, 15 minutes apart, (PM) for a 2-week double-blind treatment period.
The primary efficacy variable was the change from baseline in the Total Nasal Symptom Score (TNSS), which comprised sneezing, itchy nose, runny nose, and nasal congestion (individual symptoms scores were assigned a value between 0 and 3, where 0=no symptoms and 3=severe symptoms). This study was not statistically designed to assess the differences between ASTELIN® and FLONASE®.

[1] = Day 9, Intent-to-Treat Population
[2] = Day 10, Intent-to-Treat Population
[3] = Day 10, Per-Protocol Population
[4] = Day 11, Intent-to-Treat Population
[5] = Day 11, Per-Protocol Population
[6] = Day 12, Intent-to-Treat Population

CCC(=O)O[C@]1(C(=O)SCF)[C@H](C)C[C@H]2[C@@H]3C[C@H](F)C4=CC(=O)C=C[C@]4(C)[C@@]3(F)[C@@H](O)C[C@@]21C [Fluticasone, fluticasone propionate]
Change from Baseline in AM TNSS, Median [1]: −1.83 | Change from Baseline in AM and PM Combined TNSS, Mean [1]: −5.08 | Change from Baseline in AM and PM Combined TNSS, Median [1]: −4.58 | Change from Baseline in PM TNSS, LS Mean [1]: −2.73 | Change from Baseline in PM TNSS, Mean [1]: −2.69 | Change from Baseline in PM TNSS, Median [1]: −2.00 | Percent Change from Baseline in AM TNSS, LS Mean [1]: −24.94% | Percent Change from Baseline in AM TNSS, Mean [1]: −24.52% | Percent Change from Baseline in AM TNSS, Median [1]: −21.95% | Percent Change from Baseline in AM and PM Combined TNSS, LS Mean [1]: −26.50% | Percent Change from Baseline in AM and PM Combined TNSS, Mean [1]: −25.94% | Percent Change from Baseline in AM and PM Combined TNSS, Median [1]: −23.40% | Percent Change from Baseline in PM TNSS, LS Mean [1]: −27.82% | Percent Change from Baseline in PM TNSS, Mean [1]: −27.18% | Percent Change from Baseline in PM TNSS, Median [1]: −22.22% | Change from Baseline in AM and PM Combined TNSS, LS Mean (Day 9, Intent-to-Treat Population, ANCOVA model): −5.17 | Change from Baseline in AM and PM Combined TNSS, LS Mean (Day 9, Per-Protocol Population): −5.21 | Change from Baseline in AM and PM Combined TNSS, Mean (Day 9, Per-Protocol Population): −5.18 | Change from Baseline in AM and PM Combined TNSS, Median (Day 9, Per-Protocol Population): −4.58 | Percent Change from Baseline in AM and PM Combined TNSS, LS Mean (Day 9, Per-Protocol Population): −26.65% | Percent Change from Baseline in AM and PM Combined TNSS, Mean (Day 9, Per-Protocol Population): −26.33% | Percent Change from Baseline in AM and PM Combined TNSS, Median (Day 9, Per-Protocol Population): −23.40% | Change from Baseline in AM TNSS, LS Mean [2]: −2.74 | Change from Baseline in AM TNSS, Mean [2]: −2.73 | Change from Baseline in AM TNSS, Median [2]: −2.80 | Change from Baseline in AM and PM Combined TNSS, Mean [2]: −5.61 | Change from Baseline in AM and PM Combined TNSS, Median [2]: −4.83 | Change from Baseline in PM TNSS, LS Mean [2]: −2.90 | Change from Baseline in PM TNSS, Mean [2]: −2.88 | Change from Baseline in PM TNSS, Median [2]: −2.60 | Percent Change from Baseline in AM TNSS, LS Mean [2]: −28.09% | Percent Change from Baseline in AM TNSS, Mean [2]: −28.06% | Percent Change from Baseline in AM TNSS, Median [2]: −28.36% | Percent Change from Baseline in AM and PM Combined TNSS, LS Mean [2]: −28.93% | Percent Change from Baseline in AM and PM Combined TNSS, Mean [2]: −28.76% | Percent Change from Baseline in AM and PM Combined TNSS, Median [2]: −27.10% | Percent Change from Baseline in PM TNSS, LS Mean [2]: −29.73% | Percent Change from Baseline in PM TNSS, Mean [2]: −29.48% | Percent Change from Baseline in PM TNSS, Median [2]: −27.27% | Change from Baseline in AM and PM Combined TNSS, LS Mean (Day 10, Intent-to-Treat Population, ANCOVA model): −5.64 | Change from Baseline in AM and PM Combined TNSS, LS Mean [3]: −5.70 | Change from Baseline in AM and PM Combined TNSS, Mean [3]: −5.74 | Change from Baseline in AM and PM Combined TNSS, Median [3]: −4.83 | Percent Change from Baseline in AM and PM Combined TNSS, LS Mean [3]: −29.19% | Percent Change from Baseline in AM and PM Combined TNSS, Mean [3]: −29.26% | Percent Change from Baseline in AM and PM Combined TNSS, Median [3]: −27.10% | Change from Baseline in AM TNSS, LS Mean [4]: −2.52 | Change from Baseline in AM TNSS, Mean [4]: −2.49 | Change from Baseline in AM TNSS, Median [4]: −2.00 | Change from Baseline in AM and PM Combined TNSS, Mean [4]: −5.77 | Change from Baseline in AM and PM Combined TNSS, Median [4]: −4.83 | Change from Baseline in PM TNSS, LS Mean [4]: −3.33 | Change from Baseline in PM TNSS, Mean [4]: −3.29 | Change from Baseline in PM TNSS, Median [4]: −3.00 | Percent Change from Baseline in AM TNSS, LS Mean [4]: −25.25% | Percent Change from Baseline in AM TNSS, Mean [4]: −25.02% | Percent Change from Baseline in AM TNSS, Median [4]: −18.37% | Percent Change from Baseline in AM and PM Combined TNSS, LS Mean [4]: −29.71% | Percent Change from Baseline in AM and PM Combined TNSS, Mean [4]: −29.30% | Percent Change from Baseline in AM and PM Combined TNSS, Median [4]: −27.71% | Percent Change from Baseline in PM TNSS, LS Mean [4]: −34.15% | Percent Change from Baseline in PM TNSS, Mean [4]: −33.54% | Percent Change from Baseline in PM TNSS, Median [4]: −33.33% | Change from Baseline in AM and PM Combined TNSS, LS Mean (Day 11, Intent-to-Treat Population, ANCOVA model): −5.85 | Change from Baseline in AM and PM Combined TNSS, LS Mean [5]: −5.89 | Change from Baseline in AM and PM Combined TNSS, Mean [5]: −5.89 | Change from Baseline in AM and PM Combined TNSS, Median [5]: −4.83 | Percent Change from Baseline in AM and PM Combined TNSS, LS Mean [5]: −29.83% | Percent Change from Baseline in AM and PM Combined TNSS, Mean [5]: −29.69% | Percent Change from Baseline in AM and PM Combined TNSS, Median [5]: −27.71% | Change from Baseline in AM TNSS, LS Mean [6]: −2.99 | Change from Baseline in AM TNSS, Mean [6]: −2.98 | Change from Baseline in AM TNSS, Median [6]: −2.75 | Change from Baseline in AM and PM Combined TNSS, Mean [6]: −6.08 | Change from Baseline in AM and PM Combined TNSS, Median [6]: −5.17 | Change from Baseline in PM TNSS, LS Mean [6]: −3.13 | Change from Baseline in PM TNSS, Mean [6]: −3.10 | Change from Baseline in PM TNSS, Median [6]: −3.00 | Percent Change from Baseline in AM TNSS, LS Mean [6]: −30.64% | Percent Change from Baseline in AM TNSS, Mean [6]: −30.49% | Percent Change from Baseline in AM TNSS, Median [6]: −26.83% | Percent Change from Baseline in AM and PM Combined TNSS, LS Mean [6]: −31.31% | Percent Change from Baseline in AM and PM Combined TNSS, Mean [6]: −31.04% | Percent Change from Baseline in AM and PM Combined TNSS, Median [6]: −27.78% | Percent Change from Baseline in PM TNSS, LS Mean [6]: −32.00% | Percent Change from Baseline in PM TNSS, Mean [6]: −31.52%
